According to PubChem BioAssay (NCI):
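Tested at 5 concentrations; 48 h exposure; 96-well plates; endpoints linearly interpolated, else capped at highest concentration. The concentration for 50% growth inhibition is given as GI50. TGI: concentration producing complete growth inhibition.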

Experiments:
Test in all cases: NCI anticancer screen, dose series, 48 h
[1] = system: NCI/ADR-RES ovarian
[2] = system: IGROV1 ovarian
[3] = system: T-47D breast
[4] = system: SW-620 colon
[5] = system: MDA-MB-468 breast
[6] = system: MCF7 breast
[7] = system: SF-539 CNS
[8] = system: MALME-3M melanoma
[9] = system: OVCAR-3 ovarian
[10] = system: HS 578T breast
[11] = system: CAKI-1 renal
[12] = system: COLO 205 colon
[13] = system: MDA-MB-231 breast
[14] = system: SK-MEL-5 melanoma
[15] = system: ACHN renal
[16] = system: 786-0 renal
[17] = system: NCI-H23 lung
[18] = system: SK-MEL-2 melanoma
[19] = system: SN12C renal
[20] = system: RXF 393 renal
[21] = system: SK-OV-3 ovarian
[22] = system: HOP-62 NSCLC
[23] = system: TK-10 renal
[24] = system: M14 melanoma
[25] = system: LOX IMVI melanoma
[26] = system: EKVX NSCLC
[27] = system: OVCAR-8 ovarian
[28] = system: K-562 leukemia
[29] = system: SNB-75 CNS
[30] = system: SNB-19 CNS
[31] = system: HT29 colon
[32] = system: OVCAR-5 ovarian
[33] = system: SF-268 CNS
[34] = system: HCT-15 colon
[35] = system: U251 CNS
[36] = system: SR leukemia
[37] = system: MOLT-4 leukemia
[38] = system: HCT-116 colon
[39] = system: HOP-92 NSCLC
[40] = system: UACC-257 melanoma
[41] = system: UACC-62 melanoma
[42] = system: DU-145 prostate
[43] = system: A498 renal
[44] = system: HL-60(TB) leukemia
[45] = system: CCRF-CEM leukemia
[46] = system: RPMI-8226 leukemia
[47] = system: KM12 colon
[48] = system: A549 NSCLC
[49] = system: SF-295 CNS
[50] = system: OVCAR-4 ovarian
[51] = system: PC-3 prostate
[52] = system: NCI-H522 lung
[53] = system: MDA-MB-435
[54] = system: SK-MEL-28 melanoma
[55] = system: NCI-H460 lung
[56] = system: HCC-2998 colon
[57] = system: NCI-H226 lung
[58] = system: UO-31 renal
[59] = system: BT-549 breast

With `Cc1ccc(C(=O)C[n+]2cccc3c4ccccc4ccc32)cc1` the GI50 [1] was greater than 100 µM, the TGI [1] was greater than 100 µM and the GI50 [2] was 19.1 µM. The TGI [2] was 82.5 µM, the GI50 [3] was 6.57 µM and the TGI [3] was 46.2 µM. The GI50 [4] was 13.4 µM, the TGI [4] was 87.1 µM and the GI50 [5] was 1.61 µM. It also gave a TGI [5] of 7.72 µM, a GI50 [6] of 5.44 µM and a TGI [6] of 24.4 µM. The GI50 [7] was 16.9 µM, the TGI [7] was 58.7 µM and the GI50 [8] was 13.9 µM. For the same compound, the TGI [8] was 27.4 µM, the GI50 [9] was 6.1 µM and the TGI [9] was 52.3 µM. It also gave a GI50 [10] of 15.8 µM, a TGI [10] of 83.4 µM and a GI50 [11] of 15.6 µM. It also gave a TGI [11] of 71.1 µM, a GI50 [12] of 9.03 µM and a TGI [12] of 25.5 µM. For the same compound, the GI50 [13] was 14.4 µM, the TGI [13] was 40.8 µM and the GI50 [14] was 3.73 µM. It also gave a TGI [14] of 14.8 µM, a GI50 [15] of 15.9 µM and a TGI [15] greater than 100 µM. The GI50 [16] was 18.6 µM, the TGI [16] was 48.3 µM and the GI50 [17] was 10.6 µM. It also gave a TGI [17] of 49 µM, a GI50 [18] of 14.5 µM and a TGI [18] of 52.5 µM. The GI50 [19] was 12.5 µM, the TGI [19] was greater than 100 µM and the GI50 [20] was 3.82 µM. For the same compound, the TGI [20] was 21.6 µM, the GI50 [21] was 22.1 µM and the TGI [21] was greater than 100 µM. It also gave a GI50 [22] of 11.8 µM, a TGI [22] greater than 100 µM and a GI50 [23] of 26.4 µM. The TGI [23] was greater than 100 µM, the GI50 [24] was 11.1 µM and the TGI [24] was 29.2 µM. For the same compound, the GI50 [25] was 11.2 µM, the TGI [25] was 24.1 µM and the GI50 [26] was 7.26 µM. For the same compound, the TGI [26] was greater than 100 µM, the GI50 [27] was 6.97 µM and the TGI [27] was greater than 100 µM. It also gave a GI50 [28] of 2.45 µM, a TGI [28] greater than 100 µM and a GI50 [29] of 8.73 µM. For the same compound, the TGI [29] was 61.9 µM, the GI50 [30] was 18.5 µM and the TGI [30] was greater than 100 µM. It also gave a GI50 [31] of 5.6 µM, a TGI [31] of 48.4 µM and a GI50 [32] of 20.4 µM. For the same compound, the TGI [32] was greater than 100 µM, the GI50 [33] was 17.2 µM and the TGI [33] was greater than 100 µM. For the same compound, the GI50 [34] was 28.1 µM, the TGI [34] was greater than 100 µM and the GI50 [35] was 9.32 µM. It also gave a TGI [35] of 34.8 µM, a GI50 [36] of 29.7 µM and a TGI [36] greater than 100 µM. The GI50 [37] was 13.2 µM, the TGI [37] was 83.9 µM and the GI50 [38] was 6.64 µM. The TGI [38] was 28.6 µM, the GI50 [39] was 6.11 µM and the TGI [39] was 40.8 µM. It also gave a GI50 [40] of 10.3 µM, a TGI [40] of 25.7 µM and a GI50 [41] of 12.6 µM. For the same compound, the TGI [41] was 26.5 µM, the GI50 [42] was 18.5 µM and the TGI [42] was greater than 100 µM. The GI50 [43] was 24.1 µM, the TGI [43] was greater than 100 µM and the GI50 [44] was 3.75 µM. It also gave a TGI [44] of 21.1 µM, a GI50 [45] of 13.1 µM and a TGI [45] of 70 µM. The GI50 [46] was 3.87 µM, the TGI [46] was 21.9 µM and the GI50 [47] was 16 µM. The TGI [47] was 65 µM, the GI50 [48] was 11 µM and the TGI [48] was greater than 100 µM. For the same compound, the GI50 [49] was 7.05 µM, the TGI [49] was 29.1 µM and the GI50 [50] was 4.43 µM. It also gave a TGI [50] greater than 100 µM, a GI50 [51] of 5.53 µM and a TGI [51] of 59.4 µM. For the same compound, the GI50 [52] was 6.66 µM, the TGI [52] was 24.6 µM and the GI50 [53] was 14.2 µM. It also gave a TGI [53] of 29.8 µM, a GI50 [54] of 14.8 µM and a TGI [54] of 32.6 µM. It also gave a GI50 [55] of 10.5 µM, a TGI [55] of 25.8 µM and a GI50 [56] of 13.6 µM. It also gave a TGI [56] of 28.3 µM, a GI50 [57] of 5.18 µM and a TGI [57] of 42.9 µM. The GI50 [58] was 19.9 µM, the TGI [58] was greater than 100 µM and the GI50 [59] was 5.68 µM. It also gave a TGI [59] of 18.9 µM.
